The test deals with TFEB. Kind of test: TFEB nuclear translocation assay, HeLa wt cells. The format is cell-based. As to conditions: 2 hrs compound treatment, Table 1 does not say HeLa wt or TRPML1 KO. The method, boiled down:
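AC50 derived from the ratio of nuclear to perinuclear ring (−5 μm) anti-TFEB immunofluorescence, imaged at ×20 over four fields per well. HeLa wt or TRPML1 KO cells were exposed to compounds for 2 hrs at 37° C, then PFA-fixed and counterstained with Hoechst.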

The values that follow come from patent publication US20230104936A1, “TRPML MODULATORS” (Casma Therapeutics, Inc., priority 2019, published 2023).

Under “Homo sapiens, HeLa, 2 h”, `CN(C)S(=O)(=O)c1ccc(S(=O)(=O)Nc2ccccc2N2CCN(C(=O)[C@@H]3C[C@H]3C(C)(F)F)CC2)cc1` (racemic) [Compound A-463, rac-N4-(2-{4-[(1R,2R)-2-(1,1-difluoroethyl)cyclopropanecarbonyl]piperazin-1-yl}phenyl)-N1,N1-dimethylbenzene-1,4-disulfonamide] returned a concentration at half-maximal activity (AC50) of 2010 to 8000 nM.
On the same count and under the same terms, next, `COCC1(C)CCN(c2ccccc2NS(=O)(=O)c2ccc(CC(C)(C)C)cc2)CC1` [Compound A-489, 4-(2,2-dimethylpropyl)-N-{2-[4-(methoxymethyl)-4-methylpiperidin-1-yl]phenyl}benzene-1-sulfonamide]: 2010 to 8000 nM.
Regarding `CN(C)S(=O)(=O)c1ccc(S(=O)(=O)Nc2cccc(F)c2N2CCC(CN3CC4CCC(C3)O4)CC2)cc1` [Compound A-762, N4-{3-fluoro-2-[4-({8-oxa-3-azabicyclo[3.2.1]octan-3-yl}methyl)piperidin-1-yl]phenyl}-N1,N1-dimethylbenzene-1,4-disulfonamide], the AC50 (Homo sapiens, HeLa, 2 h) is at most 2000 nM.
On to `COC1Cc2ccc(S(=O)(=O)Nc3ccccc3N3CCC4(CC3)COC(C)(C)C4)cc2C1` (stereo not shown) [Compound A-659, N-(2-{3,3-dimethyl-2-oxa-8-azaspiro[4.5]decan-8-yl]phenyl)-2-methoxy-2,3-dihydro-1H-indene-5-sulfonamide], for which the AC50 (Homo sapiens, HeLa, 2 h) was in the range of 2010 to 8000 nM.
On the same count and under the same terms, next, `CN(C)S(=O)(=O)c1ccc(S(=O)(=O)Nc2ccccc2N2CCN(C(=O)C3(C)CCC3)CC2)cc1` [Compound A-425, N1,N1-dimethyl-N4-{2-[4-(1-methylcyclobutanecarbonyl)piperazin-1-yl]phenyl}benzene-1,4-disulfonamide]: 2010 to 8000 nM.
On the same count and under the same terms, next, `C[C@@H]1CN(CC2CCN(c3c(F)cccc3NS(=O)(=O)c3ccc(S(=O)(=O)N(C)C)cc3)CC2)C[C@@H](C)O1` [Compound A-818, N4-[2-(4-{[(2R,6R)-2,6-dimethylmorpholin-4-yl]methyl}piperidin-1-yl)-3-fluorophenyl]-N1,N1-dimethylbenzene-1,4-disulfonamide]: at most 2000 nM; `CN(C)S(=O)(=O)c1ccc(S(=O)(=O)Nc2cccc(F)c2N2CCC(C)(C(F)F)CC2)cc1` [Compound A-830, N4-{2-[4-(difluoromethyl)-4-methylpiperidin-1-yl]-3-fluorophenyl}-N1,N1-dimethylbenzene-1,4-disulfonamide]: at most 2000 nM.
Turning to `CC(C)(C)C(=O)N1CCN(c2ccccc2NS(=O)(=O)Cc2cccc(Br)c2)CC1` [Compound A-485, 1-(3-bromophenyl)-N-{2-[4-(2,2-dimethylpropanoyl)piperazin-1-yl]phenyl}methanesulfonamide], the AC50 (Homo sapiens, HeLa, 2 h) lay within 2010 to 8000 nM.
On the same count and under the same terms, next, `Cc1nn(S(=O)(=O)c2ccc(S(=O)(=O)N(C)C)cc2)cc1N1CCN(c2ccc(Cl)cc2F)CC1=O` [Compound A-306, 4-({4-[4-(4-chloro-2-fluorophenyl)-2-oxopiperazin-1-yl]-3-methyl-1H-pyrazol-1-yl}sulfonyl)-N,N-dimethylbenzene-1-sulfonamide]: at least 10000 nM; `CC(C)(C)C(=O)N1CCN(c2ccccc2NS(=O)(=O)C2(c3ccccc3)CC2)CC1` [Compound A-564, N-{2-[4-(2,2-dimethylpropanoyl)piperazin-1-yl]phenyl}-1-phenylcyclopropane-1-sulfonamide]: at most 2000 nM.
With `CC1(C)CC2(CCN(c3ccccc3NS(=O)(=O)c3ccc4c(c3)C(C)(C)CO4)CC2)CO1` [Compound A-742, N-(2-{3,3-dimethyl-2-oxa-8-azaspiro[4.5]decan-8-yl}phenyl)-3,3-dimethyl-2,3-dihydro-1-benzofuran-5-sulfonamide], the half-maximal activity concentration (AC50) (Homo sapiens, HeLa, 2 h) is at most 2000 nM.
The same measure, in the same setting: next, `CN(C)S(=O)(=O)c1ccc(S(=O)(=O)Nc2ccccc2N2CCC3(CC2)CN(C(=O)OC2CCOC2)c2cc(F)ccc23)cc1` (stereo not shown) [Compound A-442, oxolan-3-yl 1′-{2-[4-(dimethylsulfamoyl)benzenesulfonamido]phenyl}-6-fluoro-1,2-dihydrospiro[indole-3,4′-piperidine]-1-carboxylate]: at most 2000 nM.
Still for that read-out and setting: next, `CC(c1cccc(F)c1N1CCC(CN2CCC(F)(F)C2)CC1)S(=O)(=O)c1ccc(S(=O)(=O)N(C)C)cc1` (stereo not shown) [Compound A-802, 4-[1-(2-{4-[(3,3-difluoropyrrolidin-1-yl)methyl]piperidin-1-yl}-3-fluorophenyl)ethanesulfonyl]-N,N-dimethylbenzene-1-sulfonamide]: at most 2000 nM.
Still for that read-out and setting: next, `CN(C)S(=O)(=O)c1ccc(S(=O)(=O)Nc2ccccc2N2CCN(c3ncccc3F)CC2)cc1` [Compound A-51, N4-{2-[4-(3-fluoropyridin-2-yl)piperazin-1-yl]phenyl}-N1,N1-dimethylbenzene-1,4-disulfonamide]: 2010 to 8000 nM; `O=S(=O)(Nc1ccccc1N1CCC(c2ccc(Cl)cc2F)CC1)c1ccc(C(F)(F)F)cc1` [Compound A-83, N-{2-[4-(4-chloro-2-fluorophenyl)piperidin-1-yl]phenyl}-4-(trifluoromethyl)benzene-1-sulfonamide]: at most 2000 nM.
`C[C@@H]1CN(CC2CCN(c3c(F)cccc3NS(=O)(=O)c3ccc(S(=N)(=O)N(C)C)cc3)CC2)C[C@H](C)O1` (stereo partly drawn) [Compound A-769, N-(2-(4-(((2S,6R)-2,6-dimethylmorpholino)methyl)piperidin-1-yl)-3-fluorophenyl)-4-(N,N-dimethylsulfamimidoyl)benzene-sulfonamide] returned an AC50 (Homo sapiens, HeLa, 2 h) of at most 2000 nM.
In the case of `CN(C)S(=O)(=O)c1ccc(S(=O)(=O)N2CC(c3ccc(Cl)cc3F)Nc3ccccc32)cc1` (stereo not shown) [Compound A-171, 4-{[3-(4-chloro-2-fluorophenyl)-1,2,3,4-tetrahydroquinoxalin-1-yl]sulfonyl}-N,N-dimethylbenzene-1-sulfonamide], the AC50 (Homo sapiens, HeLa, 2 h) was 2010 to 8000 nM.
The same measure, in the same setting: next, `CN(C)S(=O)(=O)c1ccc(S(=O)(=O)Nc2ccccc2N2CCC(c3cnn(C)c3)CC2)cc1` [Compound A-60, N1,N1-dimethyl-N4-{2-[4-(1-methyl-1H-pyrazol-4-yl)piperidin-1-yl]phenyl}benzene-1,4-disulfonamide]: 2010 to 8000 nM.
The compound `CC(c1cccc(F)c1N1CCC(CN2C[C@@H](C)O[C@@H](C)C2)CC1)S(=O)(=O)c1ccc(S(=O)(=O)C(F)F)cc1` (single isomer, unassigned) [Compound A-808, 4-((1-(2-(1-((4-((difluoromethyl)sulfonyl)phenyl)sulfonyl)ethyl)-6-fluorophenyl)piperidin-4-yl)methyl)-2,6-dimethylmorpholine] registered an AC50 of at most 2000 nM.
For the compound `CN(C)S(=O)(=O)c1ccc(S(=O)(=O)Nc2ccccc2C2=CCN(c3ccc(Cl)cc3F)CC2)cc1` [Compound A-19, N1-(2-(1-(4-chloro-2-fluorophenyl)-1,2,3,6-tetrahydropyridin-4-yl)phenyl)-N4,N4-dimethylbenzene-1,4-disulfonamide], the concentration at half-maximal activity (AC50) (Homo sapiens, HeLa, 2 h) is at most 2000 nM.
For the setting “Homo sapiens, HeLa, 2 h”, `O=S(=O)(Nc1ccccc1N1CCC(c2ccc(Cl)cc2F)CC1)c1cccc(Cl)c1` [Compound A-77, 3-chloro-N-{2-[4-(4-chloro-2-fluorophenyl)piperidin-1-yl]phenyl}benzene-1-sulfonamide] registered an AC50 of at most 2000 nM.
On the same count and under the same terms, next, `CN1CC2CN(c3ccccc3NS(=O)(=O)c3ccc(S(=O)(=O)N(C)C)cc3)CC2C1` (stereo not shown) [Compound A-58, N1,N1-dimethyl-N4-(2-{5-methyl-octahydropyrrolo[3,4-c]pyrrol-2-yl}phenyl)benzene-1,4-disulfonamide]: at least 10000 nM.

As usually defined, the AC50 is the concentration giving half of the maximal activity seen.
